# Laboratory results published in patent publication US20030021796A1, “Method of enhancing T cell immunity by selection of antigen specific T cells” (priority 2001, published 2003).
# “Also recorded” adds a separate entry of the source.
# Legend:
# transgenic CD4^+ T cells = test: Neonatal thymus transplant under the kidney capsule of TCRα^−H2-M^−Ii^− recipients with selecting peptide; assay type: in vivo, mouse
# Excerpt: Since the selecting peptide is an agonist, in a specific embodiment of the present invention the observed phenomenon results from the expansion of a small number of peripheral transgenic CD4^+ T cells rather than from induced positive selection. To test this possibility, two types of experiments have been performed. In the first experiment, the PCC TgTCRα^−H-2M^−Ii^− mice were thymectomized and then injected with the PCC50V54A peptide. Two weeks after injection, these mice were sacrificed and the number of peripheral CD4^+ T cells was counted. […] In the second experiment, the neonatal thymi from TgTCRα^−H-2M^−Ii^− mice were transplanted under the kidney capsule of H-2M^−Ii^− TCRα^− mice, which are devoid of T cells. Two days after surgery, half of the recipient mice were injected with the selecting peptide. After 10 days, recipient mice were sacrificed and the presence of transgenic CD4^+ T cells in the transplanted thymus and lymph nodes was determined by FACS analysis. […] Apparently, CD4^+ T cells appear in the peripheral lymph nodes of PCC TgTCRα^−H-2M^−Ii^− injected with the PCC50V54A peptide as a result of positive selection by this peptide.
# Peptide injections and surgical procedures. TCR^TgTCRα^− and TCR^TgTCRαH2-M^−Ii^− were injected i.p. with agonist and control peptides dissolved in PBS. After indicated time mice were sacrificed, thymus and lymph nodes were collected and single cell suspensions were prepared. Pups were injected with 2 μg of peptide subcutaneously 12-24 hours after birth and thymi were transplanted into recipient mice 24 hours after injection. […]
# Since the selecting peptide is an agonist, one could argue that the observed phenomenon results from the expansion of a small number of peripheral transgenic CD4^+ T cells rather than from induced positive selection (Martin & Bevan, 1997). […] Two weeks after injection, the mice were sacrificed and the number of peripheral CD4^+ T cells was counted. […] After 10 days, recipient mice were sacrificed and the presence of transgenic CD4^+ T cells in the transplanted thymus and host lymph nodes was determined by FACS analysis. […]
# lymph node cells = test: Repopulation of peripheral lymph nodes in peptide-injected TCR^TgTCRα^−H2-M^−Ii^− mice; assay type: in vivo, mouse
# Method: Flow cytometry analysis. Monoclonal antibodies specific for CD4(RM4-5), CD8(53-6.7), VβB8(F23.1), CD69(H1.2F3), CD44(IM7) and CD62L(MEL-14) were purchased from PharMingen (San Diego, Calif.) and used according to manufacturer's recommendations. Cells were analyzed using a FACSCalibur instrument (Becton Dickinson, San Jose, Calif.) and CellQuest software. For intracellular stain cells were first stained for CD4 and CD8, fixed in 2% paraformaldehyde, permeabilized in 0.1% Tween-20 and stained with anti-bcl-2 antibody (Pharmingen) according to manufacturer instruction.
# Peptide injections and surgical procedures. TCR^TgTCRα^− and TCR^TgTCRαH2-M^−Ii^− were injected i.p. with agonist and control peptides dissolved in PBS. After indicated time mice were sacrificed, thymus and lymph nodes were collected and single cell suspensions were prepared. Pups were injected with 2 μg of peptide subcutaneously 12-24 hours after birth and thymi were transplanted into recipient mice 24 hours after injection. 5-8 week old TCR^TgTCRα^− H2-M^−Ii^− mice were used for thymectomy or as thymic transplant recipients. Surgical procedures were performed as described (Coligan et al., 1997). Mice were handled according with the institutional guidance.
sequence,measurement,setting,value
"AEGFSYTVANKAKGIT [PCC50V54A, analog of pigeon cytochrome C peptide PCC(43-58)]",presence of transgenic CD4^+ T cells in transplanted thymus and host lymph nodes,transgenic CD4^+ T cells; donor neonates injected (2 μg) 24 hours before transplantation,found only in mice grafted with thymi from neonates injected with the selecting peptide; also recorded: repopulate peripheral lymph nodes
same,presence of transgenic CD4^+ T cells in transplanted thymus and lymph nodes,"transgenic CD4^+ T cells; recipients injected two days after surgery, analysed after 10 days","found only in thymus-grafted mice, injected with the selecting peptide"
same,total number of lymph node cells,"transgenic CD4^+ T cells; recipients of neonatal thymi injected with the selecting peptide, two weeks after transplantation",25.5×10^6±4.2
same,CD4^+ cells in peripheral lymph nodes,"lymph node cells; after i.p. injection, about two weeks",increase in the number of CD4^+ cells
same,"phenotype of peripheral CD4^+ cells (CD44, CD62L)","lymph node cells; mouse, in vivo",had naïve phenotype
same,total number of lymph node cells,lymph node cells; two weeks after injection,44.1×10^6±9.8
